Experiments:
[1] = set-up: method as in K. Kawamura, personal communication, 2015; settings: mice; 30 min after intravenous injection; pilot assays; ref K. Kawamura, personal communication, 2015; cited from earlier work
H3Rs [2] = molecular target: T1, H3Rs (Macaca mulatta, UniProt Q865E1); test: PET in conscious rhesus monkey; type: in vivo, rhesus monkey (Macaca mulatta)
T1 construct: from tissue; host or cells: brain of living rhesus monkeys
Method: A male rhesus monkey (Macaca mulatta, weighing 6–7 kg) was used for a comparative PET analysis of [^11C]TASP0410457 and [^11C]TASP0434988. PET scans were performed using a high-resolution SHR-7700 animal PET camera (Hamamatsu Photonics, Hamamatsu, Japan). Following transmission scans for attenuation correction using a ^68Ge-^68Ga point source, emission scans were performed on a conscious monkey as described previously, in 3D acquisition mode (frames: 10 s × 12, 30 s × 6, 1 min × 5, 2 min × 5 and 5 min × 14) for 90 min after the intravenous injection of [^11C]TASP0410457 (169–176 MBq) or [^11C]TASP0434988 (173–188 MBq). Briefly, the monkey was immobilized by joining the acrylic cap on the monkey head with the fixation device during PET scans. To assess a homologous competition for the target binding sites, unlabeled TASP0410457 or TASP0434988 was injected intravenously at a dose of 1 mg/kg at 30 s before injection of the corresponding radioligand.
(§1) Emission scan images were reconstructed using a 4.0-mm Colsher filter. ROIs were placed on the anterior cingulate cortex, striatum, thalamus, hippocampus, cerebellum, frontal cortex, temporal cortex, occipital cortex, and pons-medulla using PMOD software, with reference to an MRI template as described previously. Tissue TACs were generated as in the rat PET image analysis.

H3Rs [3] = test: PET in anesthetized rhesus monkeys with arterial blood sampling; type: in vivo, rhesus monkey; settings: for V T, Logan graphical analysis, Scan duration 60 min / V T, Logan graphical analysis, Scan duration 70 min / V T, Logan graphical analysis, Scan duration 80 min / V T, Logan graphical analysis, Scan duration 90 min / V T, One-tissue compartment model, Scan duration 90 min: Mean ± S.D., n = 3
Method: For a detailed pharmacokinetic PET study using [^11C]TASP0410457 with arterial blood sampling, three male rhesus monkeys weighing 5–7 kg were scanned with the SHR-7700 PET camera. The monkeys were initially anesthetized with an intramuscular injection of ketamine (10 mg/kg), intubated, and subsequently kept anesthetized with 1–2 % isoflurane. Electrocardiogram and blood oxygen saturation levels were monitored, and body temperature was maintained by a heating pad throughout the experiment. Arterial blood (1–2.5 mL) was collected from the saphenous artery at 10, 20, 30, 40, 50, 60, and 90 s and at 2, 3, 4, 5, 10, 15, 30, 60, and 90 min after the intravenous injection of [^11C]TASP0410457 (injected radioactivity, 159 ± 30 MBq; mass dose, 1.2 ± 0.3 μg; mean ± S.D., n = 3).
The arterial blood was centrifuged at 20,000×g for 3 min at 4 °C to separate the plasma. Radioactivity in total blood and plasma was determined using a 1480 WIZARD gamma counter (PerkinElmer), and was decay-corrected to the injection time. Arterial plasma collected at 1, 5, 15, 30, 60, and 90 min was used to analyze radioactive metabolites of [^11C]TASP0410457. Two hundred microliters of plasma was mixed with 200 μL of ice-cold acetonitrile, and the mixtures were centrifuged at 20,000×g for 3 min at 4 °C. Fifty to […] of the resultant supernatants were separated using HPLC (JASCO, Tokyo, Japan) on an Atlantis T3 column (4.6 × 50 mm, Waters, Milford, MA) with a mobile phase consisting of 10 mM of ammonium acetate/acetonitrile (68:32) at a flow rate of 1 mL/min. The fraction of unmetabolized [^11C]TASP0410457 was determined by measuring the areas of the HPLC peaks corresponding to [^11C]TASP0410457 and its radiometabolites.
as §1
For PET study in anesthetized monkeys, metabolite-corrected plasma TACs were used as arterial input functions. The regional total volume of distribution (VT) was estimated by Logan’s graphical plot and one-tissue compartment model using PMOD software.

[4] = Anterior cingulate cortex, monkey brain

T1 sequence (Q865E1 1-445): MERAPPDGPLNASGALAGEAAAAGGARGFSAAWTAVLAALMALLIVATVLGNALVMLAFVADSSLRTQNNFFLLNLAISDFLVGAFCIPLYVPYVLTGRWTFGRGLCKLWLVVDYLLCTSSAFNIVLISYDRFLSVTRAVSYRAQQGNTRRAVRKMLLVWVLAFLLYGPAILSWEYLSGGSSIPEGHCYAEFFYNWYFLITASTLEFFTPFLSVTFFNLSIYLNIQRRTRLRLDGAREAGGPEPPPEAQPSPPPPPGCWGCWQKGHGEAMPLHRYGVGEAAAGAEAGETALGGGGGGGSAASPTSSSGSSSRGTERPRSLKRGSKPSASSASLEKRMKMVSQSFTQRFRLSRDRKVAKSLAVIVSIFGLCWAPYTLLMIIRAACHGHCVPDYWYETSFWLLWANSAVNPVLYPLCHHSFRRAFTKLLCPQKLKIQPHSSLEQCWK

peak SUV in the striatum (H3Rs [2]; another monkey in a conscious condition (additional PET study)): 3.0 | time of peak brain uptake after the injection (H3Rs [2]; conscious monkey PET): ≤ 30 min | peak SUV in the striatum (H3Rs [2]; first conscious monkey): 3.4 | V T, Logan graphical analysis, Scan duration 60 min (H3Rs [3]; [4]): 18.4 ± 2.7 mL/cm^3 | V T, Logan graphical analysis, Scan duration 70 min (H3Rs [3]; [4]): 18.6 ± 2.8 mL/cm^3 | V T, Logan graphical analysis, Scan duration 80 min (H3Rs [3]; [4]): 19.1 ± 3.2 mL/cm^3 | V T, Logan graphical analysis, Scan duration 90 min (H3Rs [3]; [4]): 19.5 ± 3.4 mL/cm^3 | V T, One-tissue compartment model, Scan duration 90 min (H3Rs [3]; [4]): 20.3 ± 3.3 mL/cm^3 | V T, Logan graphical analysis, Scan duration 60 min (H3Rs [3]; Cerebellum, monkey brain): 12.1 ± 1.2 mL/cm^3 | V T, Logan graphical analysis, Scan duration 70 min (H3Rs [3]; Cerebellum, monkey brain): 12.4 ± 1.3 mL/cm^3 | V T, Logan graphical analysis, Scan duration 80 min (H3Rs [3]; Cerebellum, monkey brain): 12.7 ± 1.5 mL/cm^3 | V T, Logan graphical analysis, Scan duration 90 min (H3Rs [3]; Cerebellum, monkey brain): 13.0 ± 1.7 mL/cm^3 | V T, One-tissue compartment model, Scan duration 90 min (H3Rs [3]; Cerebellum, monkey brain): 12.8 ± 1.7 mL/cm^3 | V T, Logan graphical analysis, Scan duration 60 min (H3Rs [3]; Frontal cortex, monkey brain): 12.3 ± 1.6 mL/cm^3 | V T, Logan graphical analysis, Scan duration 70 min (H3Rs [3]; Frontal cortex, monkey brain): 12.5 ± 1.7 mL/cm^3 | V T, Logan graphical analysis, Scan duration 80 min (H3Rs [3]; Frontal cortex, monkey brain): 12.8 ± 1.8 mL/cm^3 | V T, Logan graphical analysis, Scan duration 90 min (H3Rs [3]; Frontal cortex, monkey brain): 13.0 ± 2.0 mL/cm^3 | V T, One-tissue compartment model, Scan duration 90 min (H3Rs [3]; Frontal cortex, monkey brain): 13.4 ± 1.8 mL/cm^3 | V T, Logan graphical analysis, Scan duration 60 min (H3Rs [3]; Hippocampus, monkey brain): 13.0 ± 1.0 mL/cm^3 | V T, Logan graphical analysis, Scan duration 70 min (H3Rs [3]; Hippocampus, monkey brain): 13.2 ± 1.0 mL/cm^3 | V T, Logan graphical analysis, Scan duration 80 min (H3Rs [3]; Hippocampus, monkey brain): 13.6 ± 1.2 mL/cm^3 | V T, Logan graphical analysis, Scan duration 90 min (H3Rs [3]; Hippocampus, monkey brain): 13.9 ± 1.4 mL/cm^3 | V T, One-tissue compartment model, Scan duration 90 min (H3Rs [3]; Hippocampus, monkey brain): 13.9 ± 1.3 mL/cm^3 | V T, Logan graphical analysis, Scan duration 60 min (H3Rs [3]; Occipital cortex, monkey brain): 11.7 ± 1.6 mL/cm^3 | V T, Logan graphical analysis, Scan duration 70 min (H3Rs [3]; Occipital cortex, monkey brain): 11.8 ± 1.6 mL/cm^3 | V T, Logan graphical analysis, Scan duration 80 min (H3Rs [3]; Occipital cortex, monkey brain): 12.0 ± 1.8 mL/cm^3 | V T, Logan graphical analysis, Scan duration 90 min (H3Rs [3]; Occipital cortex, monkey brain): 12.1 ± 1.9 mL/cm^3 | V T, One-tissue compartment model, Scan duration 90 min (H3Rs [3]; Occipital cortex, monkey brain): 12.7 ± 2.0 mL/cm^3 | V T, Logan graphical analysis, Scan duration 60 min (H3Rs [3]; Pons-medulla, monkey brain): 8.5 ± 0.6 mL/cm^3 | V T, Logan graphical analysis, Scan duration 70 min (H3Rs [3]; Pons-medulla, monkey brain): 8.6 ± 0.7 mL/cm^3 | V T, Logan graphical analysis, Scan duration 80 min (H3Rs [3]; Pons-medulla, monkey brain): 8.8 ± 0.7 mL/cm^3 | V T, Logan graphical analysis, Scan duration 90 min (H3Rs [3]; Pons-medulla, monkey brain): 9.1 ± 0.9 mL/cm^3 | V T, One-tissue compartment model, Scan duration 90 min (H3Rs [3]; Pons-medulla, monkey brain): 8.8 ± 0.9 mL/cm^3 | V T, Logan graphical analysis, Scan duration 60 min (H3Rs [3]; Striatum, monkey brain): 21.2 ± 3.0 mL/cm^3 | V T, Logan graphical analysis, Scan duration 70 min (H3Rs [3]; Striatum, monkey brain): 21.5 ± 3.0 mL/cm^3 | V T, Logan graphical analysis, Scan duration 80 min (H3Rs [3]; Striatum, monkey brain): 21.9 ± 3.3 mL/cm^3 | V T, Logan graphical analysis, Scan duration 90 min (H3Rs [3]; Striatum, monkey brain): 22.6 ± 3.8 mL/cm^3 | V T, One-tissue compartment model, Scan duration 90 min (H3Rs [3]; Striatum, monkey brain): 23.2 ± 3.6 mL/cm^3 | V T, Logan graphical analysis, Scan duration 60 min (H3Rs [3]; Temporal cortex, monkey brain): 12.3 ± 1.6 mL/cm^3 | V T, Logan graphical analysis, Scan duration 70 min (H3Rs [3]; Temporal cortex, monkey brain): 12.4 ± 1.7 mL/cm^3 | V T, Logan graphical analysis, Scan duration 80 min (H3Rs [3]; Temporal cortex, monkey brain): 12.5 ± 1.8 mL/cm^3 | V T, Logan graphical analysis, Scan duration 90 min (H3Rs [3]; Temporal cortex, monkey brain): 12.9 ± 2.1 mL/cm^3 | V T, One-tissue compartment model, Scan duration 90 min (H3Rs [3]; Temporal cortex, monkey brain): 13.3 ± 2.1 mL/cm^3 | V T, Logan graphical analysis, Scan duration 60 min (H3Rs [3]; Thalamus, monkey brain): 15.1 ± 1.7 mL/cm^3 | V T, Logan graphical analysis, Scan duration 70 min (H3Rs [3]; Thalamus, monkey brain): 15.4 ± 1.9 mL/cm^3 | V T, Logan graphical analysis, Scan duration 80 min (H3Rs [3]; Thalamus, monkey brain): 15.6 ± 1.9 mL/cm^3 | V T, Logan graphical analysis, Scan duration 90 min (H3Rs [3]; Thalamus, monkey brain): 16.0 ± 2.1 mL/cm^3 | V T, One-tissue compartment model, Scan duration 90 min (H3Rs [3]; Thalamus, monkey brain): 16.1 ± 1.8 mL/cm^3 | time of peak radioligand retention in the striatum (H3Rs [3]; anesthetized monkeys): around 30 min | time of plasma radioactivity peak (H3Rs [3]; anesthetized monkeys, arterial plasma): approximately 1 min | peak SUV in the striatum (H3Rs [3]; anesthetized monkeys, mean ± S.D.): 5.0 ± 0.8 | striatal VT (H3Rs [3]; monkey): exceeded 20 mL/cm^3 | change of VT values when scan endpoint changed between 90 and 60 min (H3Rs [3]; monkey brain, Logan's graphical analysis, relative to values for 90 min): ≤ 7% | fraction of unmetabolized radioligand of total plasma radioactivity (H3Rs [3]; monkey plasma at 90 min): 34%
SMILES: [11CH3]Oc1ccc(N2C(=O)CCc3cc(OC4CCN(C5CCC5)CC4)ccc32)cn1 [[^11C]TASP0410457]
metabolite share of radioactivity in the brain [1]: approximately 50%

Source: article PMC4747952, “Development of TASP0410457 (TASP457), a novel dihydroquinolinone derivative as a PET radioligand for central histamine H3 receptors” (EJNMMI Research, 2016)
